# US20090298708A1, “2'-DEOXY-2'-FLUORO-BETA-D-ARABINONUCLEOSIDE 5'-TRIPHOSPHATES AND THEIR USE IN ENZYMATIC NUCLEIC ACID SYNTHESIS” (priority 2006, published 2009)
# Experiments:
# [1] = tested on: Phusion DNA polymerase (Ph); experiment: Dropout assay, fidelity of incorporation by Ph; assay type: biochemical; conditions: 30 min reaction time, 55° C., templates PF21, PF41
# Source text: FIG. 13 illustrates the fidelity of 2′F-araNTP incorporation on pyrimidine rich DNA template PF21 by Ph DNA polymerase. […] Template PF41 and primer PF20 are shown; PF39 is a 27-nt DNA control.
# FIG. 14 illustrates the fidelity of 2′F-araNTP incorporation on purine rich DNA template PF41 by Ph DNA polymerase. The base sequence of the primer, DNA template and resulting terminated products in different dropout conditions (condition 1-5) is shown. […] Lane 1: dNTPs; 2: drop out dCTP (i.e. dATP, dGTP and dTTP, shorten as AGT, same coding for lanes 3-5), lane 6: 2′F-araNTPs; 7: drop out 2′F-araCTP (i.e. 2′F-araATP, 2′F-araGTP, 2′F-araTTP, shorten as AGT; same coding for lanes 8-10). The template PF41 and the primer PF20 are shown; PF39 is a 27mer DNA control.
# For example, the 2′F-araNTP of interest is removed from the pool, and the ensuing synthesis on DNA template (e.g. PF21, PF23, PF41, PF43) assessed in comparison with a control reaction containing all four 2′F-araNTPs. For comparison, dropout experiments containing dNTPs are run in parallel. […] Apparent fidelity was calculated according to the equation:
# (§1) 1−[(% full-length−2′F-araNTP)/(% full-length+2′F-araNTP)]
# In one of these assays, 2′F-araATP was removed from the pool, and the ensuing synthesis assessed in comparison with a control reaction containing all four 2′F-araNTPs. For comparison, dropout experiments containing dNTPs were run in parallel (FIGS. 11-14).
# Phusion DNA polymerase (Ph) was evaluated for fidelity of 2′F-araNTP incorporation using the same dropout assay. All four dropout experiments were conducted with the same DNA template PF21 (FIG. 13), or PF41 (FIG. 14).
# 9N DNA polymerase = target: T1, 9N DNA polymerase (Thermococcus sp., UniProt Q56366, E143D); experiment: Dropout assay, fidelity of incorporation by 9N; assay type: biochemical, Thermococcus species (strain 9° N-7); conditions: 30 min reaction time, 25 μM triphosphates, 55° C., template A: PF41, G: PF43, T: PF21, C: PF23
# T1 construct: purchased New England Biolabs; host or cells: E. coli
# Method: (§2) FIG. 11A illustrates the fidelity of 2′F-araATP incorporation on a DNA template PF41 by DV and 9N DNA polymerases. Reaction conditions: 0.8 unit DV and 9N, 25 μM triphosphates at 55° C. in 30 μL reaction volume; incubation time: 30 min. Group 1 & 5: dNTPs; 2 & 6: dropout of dATP; 3 & 7: 2′F-araNTPs, 4 & 8: dropout of 2′F-araATP; 27mer control DNA is PF39.
# (§3) FIG. 11B illustrates the fidelity of 2′F-araGTP incorporation on DNA template PF43 by DV and 9N DNA polymerases. Reaction conditions: primer/template (1:1 molar ratio): 100 nM; 0.4 μL (0.8 unit) DV, 9N, 25 μM triphosphate concentration at 55° C. in 30 μL reaction volume. Reaction time for dNTPs (group 1, 5) was 30 min and others were shown above. Group 1 & 5: dNTPs; 2 & 6: drop out dGTP (i.e. dTTP, dCTP and dATP), 3 & 7: 2TF-araNTPs, 4 & 8: drop out 2′F-araGTP; lane P is the template PF41 as the full-length product control; PF39 is a 27-nt DNA control. All samples were analyzed by 12% denaturing PAGE.
# (§4) FIG. 12A illustrates the fidelity of 2′F-araTTP incorporation by DV and 9N DNA polymerases on a DNA template PF21. Reaction conditions: 100 nM primer/template (1:1 molar ratio); 0.4 μL (0.8 unit) DV or 9N, 25 μM triphosphate concentration at 55° C. in 30 μL reaction volume. Reaction time for dNTPs (group 1, 5) was 30 min and others were shown above. Groups 1 & 5: dNTPs; 2 & 6: drop out dTTP; 3 & 7: 2′F-araNTPs; 4 & 8: drop out 2′F-araTTPs. in B: group 1 & 5: dNTPs; 2 & 6: drop out dCTP; 3 & 7: 2′F-araNTPs; 4 & 8: drop out 2′F-araCTPs; PF39 is a 27-nt DNA control. All samples were analyzed by 12% denaturing PAGE.
# as §4, with “12B” for “12A”, “fidelity study” for “fidelity”, “2′F-araCTP” for “2′F-araTTP”, “PF23.” for “PF21.”, “(groups” for “(group”, “Groups” for “Groups 1 & 5: dNTPs; 2 & 6: drop out dTTP; 3 & 7: 2′F-araNTPs; 4 & 8: drop out 2′F-araTTPs. in B: group”
# (§5) “Dropout assays” (Ichida et al. (2005) J. Am. Chem. Soc. 127:2802-2803) were conducted to assess the fidelity of 2′F-araNTP incorporation (each of 2′F-araATP, 2′F-araCTP, 2′F-araGTP and 2′F-araTTP) by various DNA polymerases (FIGS. 11-14). For example, the 2′F-araNTP of interest is removed from the pool, and the ensuing synthesis on DNA template (e.g. PF21, PF23, PF41, PF43) assessed in comparison with a control reaction containing all four 2′F-araNTPs. For comparison, dropout experiments containing dNTPs are run in parallel. Full-length DNA and FANA products are obtained when all four dNTPs (group 1 and 5) and 2′F-araNTPs (groups 3 and 7) were available, however, some pausing may occur during synthesis of the arabinose modified oligomers. Apparent fidelity was calculated according to the equation:
# as §1
# (§6) at 30 min reaction time (sample equation for dNTP values). >99% means that the full-length product was not detectable in our dropout assays.
# (§7) “Dropout assays” (Ichida et al. (2005) J. Am. Chem. Soc. 127:2802-2803) were conducted to assess apparent fidelity of 2′F-araNTP incorporation by DV and 9N. In one of these assays, 2′F-araATP was removed from the pool, and the ensuing synthesis assessed in comparison with a control reaction containing all four 2′F-araNTPs. For comparison, dropout experiments containing dNTPs were run in parallel (FIGS. 11-14). Full-length DNA and FANA products were obtained when all four dNTPs (group 1 and 5) and 2′F-araNTPs (groups 3 and 7) were available, although some pausing was evident during synthesis of the arabinose modified oligomers.
# DV DNA polymerase = target: T2, DV DNA polymerase (Pyrococcus sp., UniProt Q51334, D141A/DEL493-1029/E143A); experiment: Dropout assay, fidelity of incorporation by DV; assay type: biochemical, Pyrococcus species GB-D; conditions: 30 min reaction time, 25 μM triphosphates, 55° C., template A: PF41, G: PF43, T: PF21, C: PF23
# T2 construct: purchased New England Biolabs; host or cells: E. coli
# Method: as §2, §3, §4
# as §4, with “12B” for “12A”, “fidelity study” for “fidelity”, “2′F-araCTP” for “2′F-araTTP”, “PF23.” for “PF21.”, “(groups” for “(group”, “Groups” for “Groups 1 & 5: dNTPs; 2 & 6: drop out dTTP; 3 & 7: 2′F-araNTPs; 4 & 8: drop out 2′F-araTTPs. in B: group”
# as §5, §1, §6, §7
Compound,"% Apparent Fidelity, 2′F-araNTP [1]","% Apparent Fidelity, 2′F-araNTP (9N DNA polymerase)","% Apparent Fidelity, 2′F-araNTP (DV DNA polymerase)","% Apparent Fidelity, dNTP [1] [%]","% Apparent Fidelity, dNTP (9N DNA polymerase) [%]","% Apparent Fidelity, dNTP (DV DNA polymerase) [%]"
"Nc1ccn([C@@H]2O[C@H](COP(=O)(O)OP(=O)(O)OP(=O)(O)O)[C@@H](O)[C@@H]2F)c(=O)n1 [2′F-araCTP, 1-(2-deoxy-2-fluoro-β-D-arabinofuranosyl)cytosine 5′-triphosphate]",C: >99%,C: 43%,C: 50%,–,–,–
"Cc1cn([C@@H]2O[C@H](COP(=O)(O)OP(=O)(O)OP(=O)(O)O)[C@@H](O)[C@@H]2F)c(=O)[nH]c1=O [2′F-araTTP, 1-(2-deoxy-2-fluoro-β-D-arabino-furanosyl)thymine 5′-triphosphate]",T: >99%,T: 76%,T: 3%,–,–,–
Nc1ccn([C@H]2C[C@H](O)[C@@H](COP(=O)(O)OP(=O)(O)OP(=O)(O)O)O2)c(=O)n1 [dCTP],–,–,–,>99,82,3
"Cc1cn([C@H]2C[C@H](O)[C@@H](COP(=O)(O)OP(=O)(O)OP(=O)(O)O)O2)c(=O)[nH]c1=O [dTTP, reference compound]",–,–,–,>99,32,19
